Data: publication PMC4111571 (Pharmaceutical research, 2012)

Experiment: Caco-2 cell monolayer bidirectional transport study
Format: in vitro ADME
Details: human, Caco-2, pH 7.4

## CC(C)NCC(O)COc1cccc2ccccc12 (stereo not drawn) [Propranolol]
  Papp A→B at 2 h, 100 µM: 41.6 ± 2.4 ×10⁻⁶ cm/s
  Papp B→A at 2 h, 100 µM: 21.3 ± 0.7 ×10⁻⁶ cm/s
  efflux ratio at 2 h, 100 µM: 0.51
